Experimental data taken from article PMC5014220, “An α‐Helix‐Mimicking 12,13‐Helix: Designed α/β/γ‐Foldamers as Selective Inhibitors of Protein–Protein Interactions” (Angewandte Chemie (International Ed. in English), 2016).

Columns and labels:
[1] = biological target: T1, p53/hDM2 interaction (FITC–p53_15–31 / hDM2(17-126) L33E) (Homo sapiens, UniProt Q00987, L33E); experiment: Fluorescence anisotropy (FA) competition assay against p53/hDM2; type: binding; details: for Displacement of FITC–p53_15–31 from hDM2 (in words): same conditions, lower asymptote of the competition curve not achieved at higher concentrations, IC50 ND; for IC50: 50 nM FITC–p53(15-31), 150 nM hDM2(17-126) L33E, 40 mM phosphate buffer pH 7.5, 200 mM NaCl, 0.02 mg mL−1 BSA, 5 % DMSO, read after 1 h at room temperature, triplicate, fit ± error
T1 construct: hDM2(17-126)

[2] = system: α‐chymotrypsin (α‐CT); experiment: Proteolytic stability with α-chymotrypsin (HPLC); type: in vitro ADME; details: α-chymotrypsin type II from bovine pancreas, 1:10000 enzyme/substrate; peptide 200 μM stock in PBS pH 7.50, 2% DMSO; followed by analytical HPLC; fold versus p53_15–31
Text: The proteolytic stability of α/β/γ‐peptides 1–8 was investigated using α‐chymotrypsin (α‐CT) as a representative protease, since this enzyme selectively hydrolyses the amide bond on the C‐terminal side of hydrophobic residues such as Leu, Trp, and Phe, all of which are present in the α/β/γ‐peptide sequences. The p53_15–31 peptide was also studied for comparison (see the Supporting Information). […] For the latter four peptides, the proteolytic activity corresponded to methyl ester hydrolysis of the C‐terminal Leu residue; in all eight cases, therefore, the hexapeptide core remained largely intact for the duration of the experiments.
IV. Proteolysis studies of peptides 1-8
α-Chymotrypsin Type II from bovine pancreas (lyophilized powder, MW = 25 kDa, ≥ 40 units/mg protein) was purchased from Sigma-Aldrich and used without further purification.
α/β/γ-Peptides and p53(15-31) peptide (200 µM stock in PBS buffer pH 7.50, 2% DMSO) were treated with α-Chymotrypsin Type II from bovine pancreas (0.02 µM stock solutions in PBS buffer pH 7.50) in a 1:10000 enzyme/substrate ratio. The degradation was followed with analytical HPLC (Ascentis® Express Peptide Column, injection volume: 20 µL, acetonitrile/water (0.1% TFA) 5-95% gradient) and the data was analysed to extract kinetic values.
1. HPLC traces of the positive control (native p53) in presence of α-Chymotrypsin
(1 picture or pasted object on this page, not shown here)

[3] = biological target: BODIPY–BAK/Bcl‐xL protein–protein interaction (Homo sapiens, UniProt Q07817); experiment: FA competition assay, BODIPY–BAK/Bcl-xL; type: binding; details: 50 nM BODIPY-Bak, 150 nM Bcl-xL, top concentration 222 μM, 1 h room temperature, triplicate
[4] = biological target: T2, FITC–NOXA B/Mcl‐1 protein–protein interaction (Homo sapiens, UniProt Q07820); experiment: FA competition assay, FITC–NOXA B/Mcl-1; type: binding; details: 50 nM FITC-NOXA B(68-87), 150 nM Mcl-1(172-327), top concentration 222 μM, 1 h room temperature, triplicate
T2 construct: Mcl-1(172-327)

Row | SMILES | Resistance to α‐CT relative to native p53_15–31 [2] [fold] | IC50 [1] [µM] | Inhibitory activity on BODIPY–BAK/Bcl‐xL interaction [3] | Inhibitory activity on FITC–NOXA B/Mcl‐1 interaction [4] | Displacement of FITC–p53_15–31 from hDM2 (in words) [1]
1 | COC(=O)CC[C@H](CC(C)C)NC(=O)[C@H]1CC[C@@H]1NC(=O)CC[C@H](Cc1ccccc1)NC(=O)[C@H]1CC[C@@H]1NC(=O)CC[C@@H](C)NC(=O)[C@H](Cc1ccccc1)NC(C)=O [Peptide 8] |  |  |  |  | effectively displaced FITC–p53_15–31 at micromolar concentrations
2 | COC(=O)CC[C@H](CC(C)C)NC(=O)[C@H]1CC[C@@H]1NC(=O)CC[C@H](Cc1ccccc1)NC(=O)[C@H]1CC[C@@H]1NC(=O)CC[C@@H](C)NC(=O)[C@H](Cc1ccccc1)NC(=O)OC(C)(C)C [Peptide 4] | ≥ 32 | > 100 |  |  | 
3 | COC(=O)[C@H](CC(C)C)NC(=O)[C@H]1CC[C@@H]1NC(=O)CC[C@H](Cc1ccccc1)NC(=O)[C@H]1CC[C@@H]1NC(=O)CC[C@@H](C)NC(=O)[C@H](Cc1ccccc1)NC(C)=O [Peptide 7] | ≥ 10 | > 100 |  |  | 
4 | COC(=O)[C@H](CC(C)C)NC(=O)[C@H]1CC[C@@H]1NC(=O)CC[C@H](Cc1c[nH]c2ccccc12)NC(=O)[C@H]1CC[C@@H]1NC(=O)CC[C@@H](C)NC(=O)[C@H](Cc1ccccc1)NC(=O)OC(C)(C)C [Peptide 1] | ≥ 10 | 57 ± 22 | no inhibitory activity | no inhibitory activity | 
5 | COC(=O)[C@H](CC(C)C)NC(=O)[C@H]1CC[C@@H]1NC(=O)CC[C@H](Cc1ccccc1)NC(=O)[C@H]1CC[C@@H]1NC(=O)CC[C@@H](C)NC(=O)[C@H](Cc1ccccc1)NC(=O)OC(C)(C)C [Peptide 3] | ≥ 10 | > 100 |  |  | 

Second part, led by results:

Row | Resistance to α‐CT relative to native p53_15–31 [2] [fold] | IC50 [1] [µM] | Inhibitory activity on BODIPY–BAK/Bcl‐xL interaction [3] | Inhibitory activity on FITC–NOXA B/Mcl‐1 interaction [4] | SMILES | Displacement of FITC–p53_15–31 from hDM2 (in words) [1]
6 | ≥ 32 |  |  |  | COC(=O)CC[C@H](CC(C)C)NC(=O)[C@H]1CC[C@@H]1NC(=O)CC[C@H](Cc1c[nH]c2ccccc12)NC(=O)[C@H]1CC[C@@H]1NC(=O)CC[C@@H](C)NC(=O)[C@H](Cc1ccccc1)NC(C)=O [Peptide 6] | effectively displaced FITC–p53_15–31 at micromolar concentrations
7 | ≥ 10 | > 100 |  |  | COC(=O)[C@H](CC(C)C)NC(=O)[C@H]1CC[C@@H]1NC(=O)CC[C@H](Cc1c[nH]c2ccccc12)NC(=O)[C@H]1CC[C@@H]1NC(=O)CC[C@@H](C)NC(=O)[C@H](Cc1ccccc1)NC(C)=O [Peptide 5] | 
8 |  | 15 ± 2 | no inhibitory activity | no inhibitory activity | COC(=O)CC[C@H](CC(C)C)NC(=O)[C@H]1CC[C@@H]1NC(=O)CC[C@H](Cc1c[nH]c2ccccc12)NC(=O)[C@H]1CC[C@@H]1NC(=O)CC[C@@H](C)NC(=O)[C@H](Cc1ccccc1)NC(=O)OC(C)(C)C [Peptide 2] | 
